The source of these data is patent US20090156577A1, “7-AMINO ALKYLIDENYL-HETEROCYCLIC QUINOLONES AND NAPHTHYRIDONES” (priority 2004, published 2009).

Converted amounts (≈) assume the structure as drawn. Like-named read-outs stand apart in the source and are kept apart here.

This experiment concerns pathogenic bacteria. As to the kind of experiment: MIC by microdilution broth method (NCCLS M7-A4), in vitro antibacterial activity. Format: cell-based. The method, boiled down: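 Broth microdilution per NCCLS M7-A4: two-fold serial dilutions in cation-adjusted Mueller-Hinton broth, inoculum about 5×10^4 CFU/well. Trays incubated 16–20 h at 35 °C. MIC read by comparing growth against no-compound growth controls.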
For orientation: In broth dilution the organism is exposed to a series of concentrations in liquid medium.

Setting [1] is: Staphylococcus aureus, Organism A: Staphylococcus aureus OC4172, read-out: MIC.
Setting [2] is: Streptococcus pneumoniae, ATCC49619, Organism E: Streptococcus pneumoniae ATCC 49619, read-out: MIC.
[3] abbreviates: Streptococcus pneumoniae, Organism C: fluoroquinolone-resistant clinical isolate of Streptococcus pneumoniae (QRDR amino acid substitutions).
[4] abbreviates: Streptococcus pneumoniae, Organism D: fluoroquinolone-resistant clinical isolate of Streptococcus pneumoniae (QRDR amino acid substitutions).
The mark [5] stands for this setting: Streptococcus pneumoniae, Organism B: fluoroquinolone-resistant clinical isolate of Streptococcus pneumoniae (QRDR amino acid substitutions).

In the case of `C[C@H]1COc2c(N3CCOC/C(=C(/F)CN)C3)c(F)cc3c(=O)c(C(=O)O)cn1c23` [Compound 494, 9-[(E)-6-(2-Amino-1-fluoro-ethylidene)-[1,4]oxazepan-4-yl]-8-fluoro-(3S)-3-methyl-6-oxo-2,3-dihydro-6H-1-oxa-3a-aza-phenalene-5-carboxylic Acid], the MIC (usually the lowest concentration that inhibits growth of the organism) under setting [1] worked out at 1 mg/L (≈ 2.37 µM), the MIC under setting [2] stood at 8 mg/L (≈ 19 µM), the MIC under setting [3] is above 16 mg/L and the MIC under setting [4] is above 16 mg/L.
As for `NC/C(F)=C1\CCCN(c2nc3c(cc2F)c(=O)c(C(=O)O)cn3C2CC2)CC1` [Compound 495, (Z)-7-[4-(2-Amino-1-fluoro-ethylidene)-azepan-1-yl]-1-cyclopropyl-6-fluoro-4-oxo-1,4-dihydro-[1,8]naphthyridine-3-carboxylic acid], the MIC under setting [1] is 0.25 mg/L (≈ 0.618 µM), the MIC under setting [2] came to 1 mg/L (≈ 2.47 µM) and the minimal inhibitory concentration (MIC) under setting [3] was determined as 2 mg/L (≈ 4.95 µM).
On to `NC/C(F)=C1/CCCN(c2nc3c(cc2F)c(=O)c(C(=O)O)cn3C2CC2)CC1` [Compound 496, (E)-7-[4-(2-Amino-1-fluoro-ethylidene)-azepan-1-yl]-1-cyclopropyl-6-fluoro-4-oxo-1,4-dihydro-[1,8]naphthyridine-3-carboxylic acid], for which the MIC by setting is: under setting [1], 0.25 mg/L (≈ 0.618 µM); under setting [2], 1 mg/L (≈ 2.47 µM); under setting [3], 0.25 mg/L (≈ 0.618 µM); under setting [4], 16 mg/L (≈ 39.6 µM).
As for `NC/C(F)=C1/COCCN(c2nc3c(cc2F)c(=O)c(C(=O)O)cn3C2CC2)C1` [Compound 497, (Z)-7-[6-(2-Amino-1-fluoro-ethylidene)-[1,4]oxazepan-4-yl]-1-cyclopropyl-6-fluoro-4-oxo-1,4-dihydro-[1,8]naphthyridine-3-carboxylic acid], the MIC under setting [1] is 1 mg/L (≈ 2.46 µM); the MIC under setting [2] was 4 mg/L (≈ 9.84 µM); the MIC under setting [5] is above 1 mg/L; the MIC under setting [3] was above 16 mg/L; the MIC under setting [4] was above 16 mg/L.
Turning to `NC/C(F)=C1\COCCN(c2nc3c(cc2F)c(=O)c(C(=O)O)cn3C2CC2)C1` [Compound 498, (E)-7-[6-(2-Amino-1-fluoro-ethylidene)-[1,4]oxazepan-4-yl]-1-cyclopropyl-6-fluoro-4-oxo-1,4-dihydro-[1,8]naphthyridine-3-carboxylic acid], the MIC is 1 mg/L (≈ 2.46 µM) under setting [1]; 16 mg/L (≈ 39.4 µM) under setting [2]; 4 mg/L (≈ 9.84 µM) under setting [5]; above 16 mg/L under setting [3]; above 16 mg/L under setting [4].
On to `C[C@H]1CN(c2nc3c(cc2F)c(=O)c(C(=O)O)cn3C2CC2)C/C(=C(/F)CN)CO1` [Compound 499, (Z)-7-[6-(2-Amino-1-fluoro-ethylidene)-(2S)-2-methyl-[1,4]oxazepan-4-yl]-1-cyclopropyl-6-fluoro-4-oxo-1,4-dihydro-[1,8]naphthyridine-3-carboxylic acid], for which the minimum inhibitory concentration (MIC) was 8 mg/L (≈ 19 µM) under setting [1]; above 16 mg/L under setting [2]; above 16 mg/L under setting [5]; above 16 mg/L under setting [3]; above 16 mg/L under setting [4].
With `C[C@@H]1CN(c2nc3c(cc2F)c(=O)c(C(=O)O)cn3C2CC2)C/C(=C(/F)CN)CO1` [Compound 500, (Z)-7-[6-(2-Amino-1-fluoro-ethylidene)-(2R)-2-methyl-[1,4]oxazepan-4-yl]-1-cyclopropyl-6-fluoro-4-oxo-1,4-dihydro-[1,8]naphthyridine-3-carboxylic acid], the MIC runs as follows: under setting [1], 2 mg/L (≈ 4.76 µM); under setting [2], 16 mg/L (≈ 38.1 µM); under setting [5], above 16 mg/L; under setting [3], above 16 mg/L; under setting [4], above 16 mg/L.
As to `NC/C(F)=C1\CCCN(c2cc3c(cc2F)c(=O)c(C(=O)O)cn3C2CC2)CC1` [Compound 501, (Z)-7-[4-(2-Amino-1-fluoro-ethylidene)-azepan-1-yl]-1-cyclopropyl-6-fluoro-4-oxo-1,4-dihydro-quinoline-3-carboxylic acid], the MIC stood at 0.25 mg/L (≈ 0.62 µM) under setting [1], 2 mg/L (≈ 4.96 µM) under setting [2], 8 mg/L (≈ 19.8 µM) under setting [3] and 16 mg/L (≈ 39.7 µM) under setting [4].
With `NC/C(F)=C1/CCCN(c2cc3c(cc2F)c(=O)c(C(=O)O)cn3C2CC2)CC1` [Compound 502, (E)-7-[4-(2-Amino-1-fluoro-ethylidene)-azepan-1-yl]-1-cyclopropyl-6-fluoro-4-oxo-1,4-dihydro-quinoline-3-carboxylic acid], the MIC reads like this: under setting [1], 0.5 mg/L (≈ 1.24 µM); under setting [2], 4 mg/L (≈ 9.92 µM); under setting [5], 16 mg/L (≈ 39.7 µM); under setting [3], 16 mg/L (≈ 39.7 µM); under setting [4], above 16 mg/L.
On to `NC/C(F)=C1/COCCN(c2cc3c(cc2F)c(=O)c(C(=O)O)cn3C2CC2)C1` [Compound 503, (Z)-7-[6-(2-Amino-1-fluoro-ethylidene)-[1,4]oxazepan-4-yl]-1-cyclopropyl-6-fluoro-4-oxo-1,4-dihydro-quinoline-3-carboxylic acid], for which the MIC runs as follows: under setting [1], 4 mg/L (≈ 9.87 µM); under setting [2], 16 mg/L (≈ 39.5 µM); under setting [3], above 16 mg/L; under setting [4], above 16 mg/L.
As for `NC/C(F)=C1\COCCN(c2cc3c(cc2F)c(=O)c(C(=O)O)cn3C2CC2)C1` [Compound 504, (E)-7-[6-(2-Amino-1-fluoro-ethylidene)-[1,4]oxazepan-4-yl]-1-cyclopropyl-6-fluoro-4-oxo-1,4-dihydro-quinoline-3-carboxylic acid], the MIC under setting [1] was 2 mg/L (≈ 4.93 µM), the MIC under setting [2] came out at 16 mg/L (≈ 39.5 µM), it took 8 mg/L (≈ 19.7 µM) to inhibit growth under setting [3] (MIC) and the minimal inhibitory concentration (MIC) under setting [4] is 4 mg/L (≈ 9.87 µM).
In the case of `COc1c(N2CCC/C(=C(/F)CN)CC2)c(F)cc2c(=O)c(C(=O)O)cn(C3CC3)c12` [Compound 505, (Z)-7-[4-(2-Amino-1-fluoro-ethylidene)-azepan-1-yl]-1-cyclopropyl-6-fluoro-8-methoxy-4-oxo-1,4-dihydro-quinoline-3-carboxylic acid], the MIC is, setting by setting: under setting [1], 0.12 mg/L (≈ 0.277 µM); under setting [2], 0.25 mg/L (≈ 0.577 µM); under setting [3], 4 mg/L (≈ 9.23 µM); under setting [4], 1 mg/L (≈ 2.31 µM).
For `COc1c(N2CCC/C(=C(\F)CN)CC2)c(F)cc2c(=O)c(C(=O)O)cn(C3CC3)c12` [Compound 506, (E)-7-[4-(2-Amino-1-fluoro-ethylidene)-azepan-1-yl]-1-cyclopropyl-6-fluoro-8-methoxy-4-oxo-1,4-dihydro-quinoline-3-carboxylic acid], the MIC by setting is: under setting [1], at most 0.015 mg/L; under setting [2], 0.25 mg/L (≈ 0.577 µM); under setting [3], 2 mg/L (≈ 4.61 µM).
`COc1c(N2CCOC/C(=C(\F)CN)C2)c(F)cc2c(=O)c(C(=O)O)cn(C3CC3)c12` [Compound 507, (Z)-7-[6-(2-Amino-1-fluoro-ethylidene)-[1,4]oxazepan-4-yl]-1-cyclopropyl-6-fluoro-8-methoxy-4-oxo-1,4-dihydro-quinoline-3-carboxylic acid]: the MIC was found to be 0.06 mg/L (≈ 0.138 µM) under setting [1]; 0.25 mg/L (≈ 0.574 µM) under setting [2]; 0.12 mg/L (≈ 0.276 µM) under setting [5]; 2 mg/L (≈ 4.59 µM) under setting [3]; 2 mg/L (≈ 4.59 µM) under setting [4].
For `COc1c(N2CCOC/C(=C(/F)CN)C2)c(F)cc2c(=O)c(C(=O)O)cn(C3CC3)c12` [Compound 508, (E)-7-[6-(2-Amino-1-fluoro-ethylidene)-[1,4]oxazepan-4-yl]-1-cyclopropyl-6-fluoro-8-methoxy-4-oxo-1,4-dihydro-quinoline-3-carboxylic acid], the MIC is, setting by setting: under setting [1], 0.12 mg/L (≈ 0.276 µM); under setting [2], 1 mg/L (≈ 2.3 µM); under setting [5], at most 4 mg/L; under setting [3], above 16 mg/L; under setting [4], 8 mg/L (≈ 18.4 µM).
